According to patent US20220112479A1, “COMPOUNDS STABILIZING AMYLASES IN LIQUIDS” (BASF SE, priority 2018, published 2022):

Legend:
Assay type in all cases: biochemical
Amy2=Amplify = assay: amylase storage stability in liquid formulation (pNP release from Ethyliden-blocked-pNPG7); parameters: key: % of activity in reference formulation at time 0; details: base formulation V., 2.0 wt % component (a), storage at 37° C.
Method: (§1) The storage stability of amylase was assessed at 37° C. Base test formulations were manufactured by making base formulations I to V by mixing the components according to Table 1. Amylases used: Amy1=Stainzyme, Amy2=Amplify, Amy3=Stainzyme Plus L (12L) The respective component (a) or comparative compound was added, if applicable, to the respective base formulation in amounts as indicated in Table 1. The amount of amylase as provided in Table 1 refers to active protein. Water was added to accomplish the balance to 100. […] Amylase activity at certain points in time as indicated in Table 2 was measured quantitatively by the release of the chromophore para-nitrophenol (pNP) from the substrate ([…]-blocked-pNPG7, Roche Applied Science 10880078103). The alpha-amylase degrades the substrate into smaller molecules and α-glucosidase (Roche Applied Science 11626329103), which is present in excess compared to the amylase, process these smaller products until pNP is released; the release of pNP, measured via an increase of absorption at 405 nm, is directly proportional to the amylase activity of the sample. Amylase standard: […] 120 L (Sigma 3403). […] The amylolytic activity values provided were calculated referring to the value determined in the reference formulation at the time 0. The nomenclature of formulations is as follows: the Roman number before the full stop characterizes the base formulation, the Arabian number the type of compound (A.# compound according to invention (component (a)); B.# comparative compound).

Amy1=Stainzyme = assay: as above; parameters: key: % of activity in reference formulation at time 0; details: base formulation IV., 2.0 wt % component (a), storage at 37° C.
Method: as §1

Savinase Ultra 16.0L = molecular target: T1, Savinase Ultra 16.0L (Lederbergia lenta, UniProt P29600); assay: protease storage stability in liquid formulation (Suc-AAPF-pNA substrate); details: storage at 37° C.
T1 construct: purchased Sigma-Aldrich
T1 sequence (P29600 1-269): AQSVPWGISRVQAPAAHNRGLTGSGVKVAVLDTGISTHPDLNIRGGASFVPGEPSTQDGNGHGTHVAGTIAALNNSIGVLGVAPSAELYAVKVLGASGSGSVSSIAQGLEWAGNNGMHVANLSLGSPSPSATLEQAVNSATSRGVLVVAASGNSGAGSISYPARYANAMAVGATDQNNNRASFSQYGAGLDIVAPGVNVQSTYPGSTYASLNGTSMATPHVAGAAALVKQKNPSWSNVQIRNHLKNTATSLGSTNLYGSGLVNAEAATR
Method: (§2) Base test formulations were manufactured by making base formulations I to V by mixing the components according to Table 1.
Protease used: (S) Savinase Ultra 16.0L (CAS-No. 9014-01-1, EC-No. 232-752-2) was purchased from Sigma-Aldrich
(§3) The respective component (a) or comparative compound was added, if applicable, to the respective base formulation in amounts as indicated in Table 1.
The amount of protease as provided in Table 1 refers to active protein.
(§4) Water was added to accomplish the balance to 100.
Protease activity at certain points in time as indicated in Table 3 was be determined by employing Succinyl-Ala-Ala-Pro-Phe-p-nitroanilide (Suc-AAPF-pNA, short AAPF) as substrate. pNA is cleaved from the substrate molecule by proteolytic cleavage, resulting in release of yellow color of free pNA which was determined by measuring […]. Measurements were done at 20° C.
The proteolytic activity values provided in Table 3 were calculated referring to the value determined in the reference formulation at the time 0.
The nomenclature of formulations is as follows: the Roman number before the full stop characterizes the base formulation, the Arabian number the type of salt (A.#inventive salt (component (a)); B.# comparative compound). Zero (“0”): no salt, but diethylene glycol.

[1] = test system: Amy3=Stainzyme Plus L (12L); assay: amylase storage stability in liquid formulation (pNP release from Ethyliden-blocked-pNPG7); details: base formulation II., 1.5 wt % component (a), storage at 37° C.
Method: The storage stability of amylase was assessed at 37° C.
as §2
Amylases used: Amy1=Stainzyme, Amy2=Amplify, Amy3=Stainzyme Plus L (12L)
as §3
The amount of amylase as provided in Table 1 refers to active protein.
as §4
Amylase activity at certain points in time as indicated in Table 2 was measured quantitatively by the release of the chromophore para-nitrophenol (pNP) from the substrate (Ethyliden-blocked-pNPG7, Roche Applied Science 10880078103). The alpha-amylase degrades the substrate into smaller molecules and α-glucosidase (Roche Applied Science 11626329103), which is present in excess compared to the amylase, process these smaller products until pNP is released; the release of pNP, measured via an increase of absorption at 405 nm, is directly proportional to the amylase activity of the sample. Amylase standard: Termamyl 120 L (Sigma 3403).
The amylolytic activity values provided were calculated referring to the value determined in the reference formulation at the time 0.
The nomenclature of formulations is as follows: the Roman number before the full stop characterizes the base formulation, the Arabian number the type of compound (A.# compound according to invention (component (a)); B.# comparative compound).

With O=C(CC(O)(CC(=O)OCc1ccccc1)C(=O)OCc1ccccc1)OCc1ccccc1 [A.8, Tribenzylcitrate] the “amylase activity, referring to reference formulation at time 0” value (“amylase activity, referring” for short) (Amy2=Amplify; 3 d) was 93, the “amylase activity, referring” value (Amy2=Amplify; 7 d) was 86 and the “amylase activity, referring” value (Amy2=Amplify; 14 d) was 80. The “amylase activity, referring” value (Amy2=Amplify; 21 d) was 77, the “amylase activity, referring” value (Amy2=Amplify; 28 d) was 66 and the “amylase activity, referring” value (Amy2=Amplify; 42 d) was 59. The “amylase activity, referring” value (Amy2=Amplify; T0) was 98, the “amylase activity, referring” value (Amy1=Stainzyme; 3 d) was 96 and the “amylase activity, referring” value (Amy1=Stainzyme; 7 d) was 92. For the same compound, the “amylase activity, referring” value (Amy1=Stainzyme; 14 d) was 86, the “amylase activity, referring” value (Amy1=Stainzyme; 21 d) was 81 and the “amylase activity, referring” value (Amy1=Stainzyme; 28 d) was 70. For the same compound, the “amylase activity, referring” value (Amy1=Stainzyme; 42 d) was 59, the “amylase activity, referring” value (Amy1=Stainzyme; T0) was 98 and the “protease activity, referring to reference formulation at time 0” value (from here on “protease activity, referring”) (Savinase Ultra 16.0L; base formulation II., 1.5 wt % component (a), 3 d) was 94. For the same compound, the “protease activity, referring” value (Savinase Ultra 16.0L; base formulation II., 1.5 wt % component (a), 7 d) was 93, the “protease activity, referring” value (Savinase Ultra 16.0L; base formulation II., 1.5 wt % component (a), 14 d) was 90 and the “protease activity, referring” value (Savinase Ultra 16.0L; base formulation II., 1.5 wt % component (a), 21 d) was 87. The “protease activity, referring” value (Savinase Ultra 16.0L; base formulation II., 1.5 wt % component (a), 28 d) was 83, the “protease activity, referring” value (Savinase Ultra 16.0L; base formulation II., 1.5 wt % component (a), 42 d) was 75 and the “protease activity, referring” value (Savinase Ultra 16.0L; base formulation II., 1.5 wt % component (a), T0) was 100. The “protease activity, referring” value (Savinase Ultra 16.0L; base formulation IV., 2.0 wt % component (a), 3 d) was 96, the “protease activity, referring” value (Savinase Ultra 16.0L; base formulation IV., 2.0 wt % component (a), 7 d) was 93 and the “protease activity, referring” value (Savinase Ultra 16.0L; base formulation IV., 2.0 wt % component (a), 14 d) was 88. The “protease activity, referring” value (Savinase Ultra 16.0L; base formulation IV., 2.0 wt % component (a), 21 d) was 83, the “protease activity, referring” value (Savinase Ultra 16.0L; base formulation IV., 2.0 wt % component (a), 28 d) was 75 and the “protease activity, referring” value (Savinase Ultra 16.0L; base formulation IV., 2.0 wt % component (a), 42 d) was 68. For the same compound, the “protease activity, referring” value (Savinase Ultra 16.0L; base formulation IV., 2.0 wt % component (a), T0) was 98, the “protease activity, referring” value (Savinase Ultra 16.0L; base formulation V., 2.0 wt % component (a), 3 d) was 96 and the “protease activity, referring” value (Savinase Ultra 16.0L; base formulation V., 2.0 wt % component (a), 7 d) was 92. For the same compound, the “protease activity, referring” value (Savinase Ultra 16.0L; base formulation V., 2.0 wt % component (a), 14 d) was 86, the “protease activity, referring” value (Savinase Ultra 16.0L; base formulation V., 2.0 wt % component (a), 21 d) was 82 and the “protease activity, referring” value (Savinase Ultra 16.0L; base formulation V., 2.0 wt % component (a), 28 d) was 77. The “protease activity, referring” value (Savinase Ultra 16.0L; base formulation V., 2.0 wt % component (a), 42 d) was 69, the “protease activity, referring” value (Savinase Ultra 16.0L; base formulation V., 2.0 wt % component (a), T0) was 100 and the “amylase activity, referring” value ([1]; 3 d) was 100. For the same compound, the “amylase activity, referring” value ([1]; 7 d) was 95, the “amylase activity, referring” value ([1]; 14 d) was 90 and the “amylase activity, referring” value ([1]; 21 d) was 83. The “amylase activity, referring” value ([1]; 28 d) was 81, the “amylase activity, referring” value ([1]; 42 d) was 71 and the “amylase activity, referring” value ([1]; T0) was 99.
